According to the C3SDB collision cross section collection:

conditions: [M+H3C2O2]-; instrument: TW; calibrated with polyalanine

Compound | collision cross section (N2)
CC(=O)OC[C@]12[C@H](O)C(=O)C(C)=C[C@H]1O[C@@H]1[C@H](O)C[C@@]2(C)[C@]12CO2 [15-Acetyldeoxynivalenol] | 196 Å²
CC1=C[C@H]2O[C@@H]3[C@H](O)[C@@H](O)[C@](C)([C@@]2(CO)[C@H](O)C1=O)[C@]31CO1 [Nivalenol] | 180 Å²
CC(=O)O[C@@H]1C[C@]2(C)[C@@]3(CO)[C@H](O)C(=O)C(C)=C[C@H]3O[C@H]1[C@@]21CO1 [3-Acetyldeoxynivalenol] | 196 Å²
CC1=C[C@H]2O[C@@H]3[C@H](O)C[C@](C)([C@@]2(CO)[C@H](O)C1=O)[C@]31CO1 [Deoxynivalenol] | 183 Å²

same assay, conditions: [M+H]+; instrument: TW; calibrated with polyalanine

Compound | collision cross section (N2)
COc1cc2c(c3oc4cccc(O)c4c(=O)c13)[C@@H]1C=CO[C@@H]1O2 [Sterigmatocystin] | 163 Å²
CC(C)[C@H]1C(=O)O[C@H](C(C)C)C(=O)N(C)[C@@H](C(C)C)C(=O)O[C@H](C(C)C)C(=O)N(C)[C@@H](C(C)C)C(=O)O[C@H](C(C)C)C(=O)N1C [Enniatin B] | 244.1 Å²
COc1cc2c(c3oc(=O)c4c(c13)CCC4=O)[C@@H]1C=CO[C@@H]1O2 [Aflatoxin B1] | 161 Å²
C=CC(C)(C)C12CC3C(=O)N/C(=C/c4cnc[nH]4)C(=O)N3C1Nc1ccccc12 (configuration not stated) [Roquefortine C] | 179 Å²
CCCC[C@@H](C)[C@@H](OC(=O)C[C@@H](CC(=O)O)C(=O)O)[C@H](C[C@@H](C)CCCCCC[C@@H](O)C[C@H](O)[C@H](C)N)OC(=O)C[C@@H](CC(=O)O)C(=O)O [Fumonisin B2] | 258 Å²
COc1cc2c(c3oc(=O)c4c(c13)CCOC4=O)C1C=COC1O2 (configuration not stated) [Aflatoxin G1] | 164 Å²
CC1=C2C(=CO[C@H](C)[C@H]2C)C(=O)C(C(=O)O)=C1O [Citrinin] | 148 Å²
CC(C)(O)[C@H]1O[C@H]2CC[C@@]3(C)[C@@](O)(CC[C@H]4Cc5c([nH]c6ccccc56)[C@@]43C)C2=CC1=O [Paxilline] | 201 Å²
COc1cc2c(c3oc(=O)c4c(c13)CCC4=O)[C@]1(O)C=CO[C@@H]1O2 [Aflatoxin M1] | 166 Å²

same assay, conditions: [M+K]+; instrument: TW; calibrated with polyalanine

Compound | collision cross section (N2)
CCCC[C@@H](C)[C@@H](O)[C@@H](O)C[C@@H](C)C[C@H](O)CCCC[C@@H](O)C[C@H](O)[C@H](C)N [HFB1] | 214 Å²
CC(C)[C@H]1C(=O)O[C@H](C(C)C)C(=O)N(C)[C@@H](C(C)C)C(=O)O[C@H](C(C)C)C(=O)N(C)[C@@H](C(C)C)C(=O)O[C@H](C(C)C)C(=O)N1C [Enniatin B] | 251.1 Å²
COc1cc2c(c3oc(=O)c4c(c13)CCC4=O)[C@@H]1C=CO[C@@H]1O2 [Aflatoxin B1] | 177.1 Å²
CCCC[C@@H](C)[C@@H](OC(=O)C[C@@H](CC(=O)O)C(=O)O)[C@H](C[C@@H](C)CCCCCC[C@@H](O)C[C@H](O)[C@H](C)N)OC(=O)C[C@@H](CC(=O)O)C(=O)O [Fumonisin B2] | 264.5 Å²
COc1cc2c(c3oc(=O)c4c(c13)CCOC4=O)C1C=COC1O2 (configuration not stated) [Aflatoxin G1] | 180.2 Å²
COc1cc2c(c3oc(=O)c4c(c13)CCC4=O)[C@]1(O)C=CO[C@@H]1O2 [Aflatoxin M1] | 177.8 Å²

same assay, conditions: [M+NH4]+; instrument: TW; calibrated with polyalanine

Compound | collision cross section (N2)
CC(C)[C@H]1C(=O)O[C@H](C(C)C)C(=O)N(C)[C@@H](C(C)C)C(=O)O[C@H](C(C)C)C(=O)N(C)[C@@H](C(C)C)C(=O)O[C@H](C(C)C)C(=O)N1C [Enniatin B] | 248 Å²
CC(=O)OC[C@]12C[C@H](OC(=O)CC(C)C)C(C)=C[C@H]1O[C@@H]1[C@H](O)[C@@H](O)[C@@]2(C)[C@]12CO2 [HT-2 toxin] | 203 Å²

same assay, conditions: [M+Na]+; instrument: TW; calibrated with polyalanine

Compound | collision cross section (N2)
CCCC[C@@H](C)[C@@H](O)[C@@H](O)C[C@@H](C)C[C@H](O)CCCC[C@@H](O)C[C@H](O)[C@H](C)N [HFB1] | 209.7 Å²
CC(C)[C@H]1C(=O)O[C@H](C(C)C)C(=O)N(C)[C@@H](C(C)C)C(=O)O[C@H](C(C)C)C(=O)N(C)[C@@H](C(C)C)C(=O)O[C@H](C(C)C)C(=O)N1C [Enniatin B] | 248.9 Å²
COc1cc2c(c3oc(=O)c4c(c13)CCC4=O)[C@@H]1C=CO[C@@H]1O2 [Aflatoxin B1] | 164 Å²
CCCC[C@@H](C)[C@@H](OC(=O)C[C@@H](CC(=O)O)C(=O)O)[C@H](C[C@@H](C)CCCCCC[C@@H](O)C[C@H](O)[C@H](C)N)OC(=O)C[C@@H](CC(=O)O)C(=O)O [Fumonisin B2] | 259.2 Å²
COc1cc2c(c3oc(=O)c4c(c13)CCOC4=O)C1C=COC1O2 (configuration not stated) [Aflatoxin G1] | 176.5 Å²
COc1cc2c(c3oc(=O)c4c(c13)CCC4=O)[C@]1(O)C=CO[C@@H]1O2 [Aflatoxin M1] | 179.5 Å²

same assay, conditions: [M-H]-; instrument: TW; calibrated with polyalanine

Compound | collision cross section (N2)
C[C@H]1CCC[C@@H](O)CCC/C=C/c2cc(O)cc(O)c2C(=O)O1 [beta-zearalenol] | 173 Å²
CC(=O)C1=C(O)[C@@H]2[C@H]3c4c[nH]c5cccc(c45)C[C@H]3C(C)(C)N2C1=O [Cyclopiazonic acid] | 174 Å²

conditions: [M+H]+; instrument: TW; calibrated with polyalanine

collision cross section (N2) | Compound
132 Å² | NC(=O)NCCC[C@H](N)C(=O)O [Citrulline]
179 Å² | Nc1ncnc2c1ncn2[C@@H]1O[C@H](CSCC[C@H](N)C(=O)O)[C@@H](O)[C@H]1O [SAH]
139 Å² | N[C@@H](Cc1ccc(O)cc1)C(=O)O [Tyrosine]
150 Å² | N[C@@H]1[C@@H](O)[C@H](O)[C@@H](COP(=O)(O)O)O[C@@H]1O [Glucosamine 6-phosphate]
135 Å² | N[C@@H](Cc1ccccc1)C(=O)O [Phenylalanine]
115 Å² | O=c1cc[nH]c(=O)[nH]1 [Uracil]
129 Å² | CC[C@H](C)[C@H](N)C(=O)O [Isoleucine]
124 Å² | Nc1nc(=O)c2[nH]cnc2[nH]1 [Guanine]
141 Å² | CN(C)C(N)=NCCC[C@H](N)C(=O)O [ADMA]
176 Å² | Nc1nc(=O)c2ncn([C@@H]3O[C@H](COP(=O)(O)O)[C@@H](O)[C@H]3O)c2[nH]1 [GMP]
127 Å² | CSCC[C@H](N)C(=O)O [Methionine]
121 Å² | O=C1CC[C@@H](C(=O)O)N1 [5-Oxoproline]
133 Å² | NC(N)=NCCC[C@H](N)C(=O)O [Arginine]
130 Å² | Cc1ncc(CO)c(CN)c1O [Pyridoxamine]
174 Å² | O=c1ccn([C@@H]2O[C@H](COP(=O)(O)OP(=O)(O)O)[C@@H](O)[C@H]2O)c(=O)[nH]1 [UDP]
115 Å² | O=C(O)c1cccnc1 [Nicotinic acid]

same assay, conditions: [M+Na]+; instrument: TW; calibrated with polyalanine

collision cross section (N2) | Compound
140 Å² | O=C(O)[C@H]1OC(O)[C@H](O)[C@@H](O)[C@@H]1O (some centres not stated) [Glucuronic acid]
170 Å² | Cc1cn([C@H]2C[C@H](O)[C@@H](COP(=O)(O)O)O2)c(=O)[nH]c1=O [dTMP]
